In the assay the target is T1, human β3-adrenergic receptor (Homo sapiens, UniProt P13945).
T1 construct: expressed in transfected cells
In words: cAMP levels in CHO-K1 cells expressing the human β3-adrenergic receptor. It counts as cell-based. The conditions noted are these: CHO-K1, 0.25 h, 15 min, read-out: Activity (intracellular cAMP compared to that of isoproterenol). As for the experimental part:
CHO-K1 cells stably expressing the human β3-adrenergic receptors were serum-starved overnight and stimulated with an agonist, final concentration 1×10^−5 M, for 15 min in stimulation buffer (HBSS supplemented with 1% BSA, 5 mM HEPES and 1 mM IBMX, pH 7.4) The medium was then aspirated and to end the reaction, 100 μL of 95% EtOH was added to each well of the 24-well plate and cells were kept at −20° C. overnight. The next day EtOH was allowed to evaporate and 250 μL of lysis buffer (1% BSA, 5 mM HEPES and 0.3% Tween-20, pH 7.4) was added to each well. The plate was kept at −80° C. for 30 min and thawed in room temperature. Intracellular cAMP levels were detected using an alpha screen cAMP kit (6760635D from Perkin Elmer). The activity for each compound is compared to that of isoproterenol.
Background: Changes in cAMP serve as a functional read-out for many G protein-coupled receptors.

T1 sequence (P13945 whole entry): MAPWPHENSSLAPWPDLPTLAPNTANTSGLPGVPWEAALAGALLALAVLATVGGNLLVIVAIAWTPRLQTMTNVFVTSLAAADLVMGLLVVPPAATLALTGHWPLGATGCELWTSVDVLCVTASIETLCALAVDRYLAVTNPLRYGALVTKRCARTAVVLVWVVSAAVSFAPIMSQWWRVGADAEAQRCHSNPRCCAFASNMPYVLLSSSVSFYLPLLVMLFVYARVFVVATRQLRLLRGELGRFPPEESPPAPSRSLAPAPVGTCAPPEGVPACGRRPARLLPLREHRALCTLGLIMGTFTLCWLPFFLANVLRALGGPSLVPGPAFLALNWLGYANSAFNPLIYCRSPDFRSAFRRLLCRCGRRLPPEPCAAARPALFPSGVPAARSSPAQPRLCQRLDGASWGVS

Turning to `CC(=O)N[C@H]1CC[C@@H](C[C@@H]2CC[C@H]([C@H](O)c3cccc(F)c3F)N2)CC1` [Compound 1, N-((cis)-4-(((2S,5R)-5-((R)-(2,3-difluorophenyl)-(hydroxy)methyl)pyrrolidin-2-yl)methyl)cyclohexyl)-acetamide], the Emax at 10 µM is above 75%. As for `CN(C)C(=O)N1CCC[C@@H](CC(C)(C)NC[C@H](O)c2cncc(F)c2)C1` [Compound 2, (S)-3-(2-(((R)-2-(5-fluoro-pyridin-3-yl)-2-hydroxy-ethyl)amino)-2-methyl-propyl)-N,N-dimethyl-piperidine-1-carboxamide], the Emax at 10 µM lay within 50 to 75%. For the compound `CNC(=O)N1CCC[C@@H](CC(C)(C)NC[C@H](O)c2cccc(F)c2)C1` [Compound 3, (S)-3-(2-(((R)-2-(3-fluorophenyl)-2-hydroxy-ethyl)amino)-2-methyl-propyl)-N-methylpiperidine-1-carboxamide], the Emax at 10 µM is above 75%. Regarding `CN(C)C(=O)N1CCC[C@@H](CC(C)(C)NC[C@H](O)c2cccc(F)c2)C1` [Compound 4, (S)-3-(2-(((R)-2-(3-fluoro-phenyl)-2-hydroxyethyl)-amino)-2-methylpropyl)-N,N-dimethylpiperidine-1-carboxamide], the Emax at 10 µM is above 75%.

As for `COC(=O)N1CCC[C@@H](CC(C)(C)NC[C@H](O)c2cccc(F)c2)C1` [Compound 5, methyl (S)-3-(2-(((R)-2-(3-fluorophenyl)-2-hydroxy-ethyl)amino)-2-methyl-propyl)piperidine-1-carboxylate], the Emax at 10 µM is above 75%. On to `CO[C@H]1CC[C@H](C[C@@H]2CC[C@H]([C@H](O)c3cccc(F)c3F)N2)CC1` [Compound 6, (R)-(2,3-difluorophenyl)-((2R,5S)-5-(((trans)-4-methoxycyclohexyl)methyl)-pyrrolidin-2-yl)methanol], for which the Emax at 10 µM was above 75%. Then `CO[C@H]1CC[C@@H](C[C@@H]2CC[C@H]([C@H](O)c3cccc(F)c3F)N2)CC1` [Compound 7, (R)-(2,3-difluorophenyl)-((2R,5S)-5-(((cis)-4-methoxycyclohexyl)methyl)-pyrrolidin-2-yl)methanol], with 50 to 75%; and `CC(C)(C[C@@H]1CCCN(C(=O)C(F)(F)F)C1)NC[C@H](O)c1cccc(F)c1` [Compound 9, 2,2,2-trifluoro-1-((S)-3-(2-(((R)-2-(3-fluorophenyl)-2-hydroxyethyl)amino)-2-methylpropyl)piperidin-1-yl)-ethan-1-one], with 50 to 75%. `CCCS(=O)(=O)N[C@H]1CC[C@H](CC(C)(C)NC[C@H](O)c2cncc(F)c2)CC1` [Compound 10, N-((trans)-4-(2-(((R)-2-(5-fluoropyridin-3-yl)-2-hydroxyethyl)amino)-2-methylpropyl)cyclohexyl)-propane-1-sulfonamide]: the Emax at 10 µM is above 75%. Regarding `CC(C)(C[C@H]1CC[C@H](NS(=O)(=O)C(F)(F)F)CC1)NC[C@H](O)c1cncc(F)c1` [Compound 11, 1,1,1-trifluoro-N-((1R,4r)-4-(2-(((R)-2-(5-fluoropyridin-3-yl)-2-hydroxyethyl)amino)-2-methylpropyl)cyclohexyl)-methanesulfonamide], the Emax at 10 µM was above 75%.

For `CCCCS(=O)(=O)N[C@H]1CC[C@@H](CC(C)(C)NC[C@H](O)c2cccc(F)c2)CC1` [Compound 12], the Emax at 10 µM is above 75%.

`CCCCS(=O)(=O)N[C@H]1CC[C@H](CC(C)(C)NC[C@H](O)c2cccc(F)c2)CC1` [Compound 13]: the Emax at 10 µM is above 75%. For `CC(C)CS(=O)(=O)N[C@H]1CC[C@@H](CC(C)(C)NC[C@H](O)c2cncc(F)c2)CC1` [Compound 14, N-((cis)-4-(2-(((R)-2-(5-fluoropyridin-3-yl)-2-hydroxyethyl)amino)-2-methylpropyl)cyclohexyl)-2-methylpropane-1-sulfonamide], the Emax at 10 µM fell in the range of 50 to 75%.

These data come from US20250262170A1, “COMBINATIONS OF BETA 2-ADRENERGIC RECEPTOR AGONISTS AND BETA 3-ADRENERGIC RECEPTOR AGONISTS, AND MEDICAL USES THEREOF” (ATROGI AB, priority 2022, published 2025).
